Experimental data published in patent publication US20060020042A1, “Memantine for the treatment of mild and mild to moderate Alzheimer's disease” (Forest Laboratories, Inc., priority 2004, published 2006).

How the values were obtained:
[1] = system: outpatients with mild-to-moderate Alzheimer's disease; assay: CIBIC-plus in randomized, double-blind, placebo-controlled study; assay type: in vivo, human; settings: for CIBIC+ Non-Responder, number of patients / CIBIC+ Responder (ratings 1-4), number of patients / CIBIC+ Difference (memantine minus placebo, mean): Week 24, ITT; for CIBIC+ Difference (memantine minus placebo, mean): 20 mg/day
Text: The present invention is based on results from a randomized, double-blind, placebo-controlled, multi-center, parallel-group study comparing memantine to placebo in outpatients diagnosed with probable AD according to […] criteria. Severity of mild to moderate was established using the Mini-Mental State Examination (MMSE) score (≧10 and ≦22; 0 is the lowest score and 30 is the highest score). In the study of the present invention, there were approximately 400 patients enrolled across 42 centers. Evaluation of primary efficacy was achieved by Alzheimer's Disease Assessment Scale-cognitive subscale (ADAS-cog) and the Clinician's Interview-Based Impression of Change including caregiver information (CIBIC-plus). Secondary efficacy was determined using Alzheimer's disease Cooperative Study-Activities of Daily Living (ADCS-ADL) and Neuropsychiatric Inventory (NPI) criteria. The CIBIC-Plus is a global rating that was derived through an independent, comprehensive interview with the patient and caregiver by an experienced rater/clinician who was barred from knowledge of all other psychometric test scores (after Baseline visit) conducted as part of this protocol and who is not otherwise familiar with the patient. Scores 1-3 indicate improvement; Score 4 indicates no change (as compared to baseline); Scores 5-7 indicate worsening. The CIBIC rater assessed disease severity at Baseline. Using the results from Baseline for reference, the rater then interviewed the patient and caregiver at the end of Weeks 4, 8, 12, 18 and 24 (or upon early termination), to obtain an “Impression of Change” rating. The format for this scale was derived from the Alzheimer's Disease Cooperative Study-Clinician's Global Impression of Change scale (ADCS-CGIC) (Schneider, L. et al, Alzheimer Dis Assoc Disord. 1997; 11 Suppl 2:S22-32). The CIBIC-plus was administered at each clinic visit starting with the Baseline visit. A “responder” is defined as a patient for whom the change from baseline (Visit 2) to Week 24 in ADAS-cog is less than or equal to -4. […] Results were evaluated over seven clinical visits; at initial screening, baseline, and the end of weeks 4, 8, 12, 18 and 24. The population of patients who received at least one dose of double-blind memantine, and completed at least one post-baseline efficacy evaluation of either the ADAS-cog or the CIBIC-plus is designated the “intent-to-treat” (ITT) population. The population of randomized patients who received at least one dose of double-blind study medication is designated the “safety population”. The randomized population designates all patients randomized into the study. This study was conducted as a fixed-dose study. All patients assigned to the memantine group received an initial dose of 5 mg per day; the dose was titrated in 5 mg weekly increments to a final dose of 20 mg/day (administered as two 5 mg tablets twice a day). Study drug was provided as blister packs containing masked study medication such that placebo and memantine tablets were visually identical, and all patients received four tablets of study medication daily (in combinations of memantine 5 mg tablets and matching placebo tablets). Transient dose adjustments were permitted between weeks 3 and 8 for patients experiencing dose-limiting adverse events. However, all patients were required to receive the target dose of 20 mg/day by the end of week 8. Patients not able to tolerate the target dose by week 8 were discontinued from the study. The CIBIC-plus rating was analyzed using the CMH test, controlling for study center ([…]). Descriptive statistics were calculated by visit.

[2] = system: outpatients with mild-to-moderate Alzheimer's disease; assay: ADCS-ADL in randomized, double-blind, placebo-controlled study; assay type: in vivo, human; settings: Week 24, ITT, 20 mg/day
Experimental: In the study of the present invention, there were approximately 400 patients enrolled across 42 centers. Evaluation of primary efficacy was achieved by Alzheimer's Disease Assessment Scale-cognitive subscale (ADAS-cog) and the Clinician's Interview-Based Impression of Change including caregiver information (CIBIC-plus). Secondary efficacy was determined using Alzheimer's disease Cooperative Study-Activities of Daily Living (ADCS-ADL) and Neuropsychiatric Inventory (NPI) criteria. The ADCS-ADL inventory consists of 23 questions used to measure the functional capabilities of patients with dementia. These questions are selected from a larger set of 49 questions in the original ADL scale. A more common selection is of 19 questions from the same 49 question group. Each ADL item comprises a series of hierarchical sub-questions, ranging from the highest level of independent performance of each ADL to complete loss. The ADSC-ADL Inventory total score ranges from 0 (lower functioning status) to 78 (higher functioning status). A higher score indicates a better functioning status. […] Results were evaluated over seven clinical visits; at initial screening, baseline, and the end of weeks 4, 8, 12, 18 and 24. […] Descriptive statistics were calculated by visit. […]

NMDA receptor = settings: uncompetitive antagonist; cited from earlier work
[3] = LOCF, ITT, of 196 patients randomized to memantine

Compound: CC12CC3CC(C)(C1)CC(N)(C3)C2 [Memantine, 1-amino-3,5-dimethyladamantane]
- CIBIC-plus marked improvement, number of patients [1, 3]: 9 patients
- CIBIC-plus marked worsening, number of patients [1, 3]: 1 patients
- CIBIC-plus moderate improvement, number of patients [1, 3]: 27 patients
- CIBIC-plus moderate worsening, number of patients [1, 3]: 18 patients
- CIBIC-plus marked worsening, number of patients ([1]; OC analysis): 1 patients
- CIBIC-plus minimal improvement, number of patients ([1]; OC analysis): 24 patients
- CIBIC-plus moderate improvement, number of patients ([1]; OC analysis): 8 patients
- CIBIC-plus moderate worsening, number of patients ([1]; OC analysis): 17 patients
- CIBIC+ Non-Responder, number of patients ([1]; LOCF analysis): 64 patients
- CIBIC+ Responder (ratings 1-4), number of patients ([1]; LOCF analysis): 132 patients
- CIBIC+ Difference (memantine minus placebo, mean) ([1]; LOCF analysis, p=0.004): −0.32
- CIBIC+ Non-Responder, number of patients ([1]; LOCF analysis, listed as Mem): 97/64 patients
- CIBIC+ Responder (ratings 1-4), number of patients ([1]; LOCF analysis, listed as Mem): 100/132 patients
- CIBIC+ Non-Responder, number of patients ([1]; OC analysis): 56 patients
- CIBIC+ Responder (ratings 1-4), number of patients ([1]; OC analysis): 108 patients
- CIBIC+ Difference (memantine minus placebo, mean) ([1]; OC analysis, p=0.030): −0.26
- CIBIC+ Non-Responder, number of patients ([1]; OC analysis, listed as Mem): 81/56 patients
- CIBIC+ Responder (ratings 1-4), number of patients ([1]; OC analysis, listed as Mem): 85/108 patients
- CIBIC-plus, memantine-treated group compared with placebo ([1]; by week 12, LOCF and OC): statistically significant improvement
- ADCS-ADL Difference (memantine minus placebo, LS mean) ([2]; LOCF analysis, p=0.890): 0.1
- ADCS-ADL Difference (memantine minus placebo, LS mean) ([2]; OC analysis, p=0.975): 0.0
- affinity for the NMDA receptor (NMDA receptor): moderate affinity
